Data: patent US20100285145A1, “GPR 119 MODULATORS” (PFIZER INC, priority 2009, published 2010)
pEC50, pKi: −log10 of the molar value.

Tests used:
human GPR119 [1] = target: T1, human GPR119 (Homo sapiens, UniProt Q8TDV5); experiment: β-Lactamase reporter functional assay (hGPR119 HEK293-CRE beta-lactamase cells); assay type: cell-based; design: host or cells: HEK293-CRE beta-lactamase; Emax: dose or concentration left out as unconfirmed
T1 sequence (Q8TDV5 1-335): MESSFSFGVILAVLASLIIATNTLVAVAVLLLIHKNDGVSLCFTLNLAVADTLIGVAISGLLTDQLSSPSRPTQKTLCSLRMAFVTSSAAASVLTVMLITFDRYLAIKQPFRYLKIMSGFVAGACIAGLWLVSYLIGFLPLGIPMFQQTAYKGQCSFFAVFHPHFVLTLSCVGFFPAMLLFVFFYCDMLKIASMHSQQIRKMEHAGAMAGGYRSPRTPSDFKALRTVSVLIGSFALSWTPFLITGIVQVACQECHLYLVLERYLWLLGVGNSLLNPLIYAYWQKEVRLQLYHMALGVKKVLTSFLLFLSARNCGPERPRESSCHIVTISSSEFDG
Description: The assay for GPR119 agonists utilizes a cell-based (hGPR119 HEK293-CRE beta-lactamase) reporter construct where agonist activation of human GPR119 is coupled to beta-lactamase production via a cyclic AMP response element (CRE). GPR119 activity is then measured utilizing a FRET-enabled beta-lactamase substrate, CCF4-AM (Live Blazer FRET-B/G Loading kit, Invitrogen cat #K1027). Specifically, hGPR119-HEK-CRE-beta-lactamase cells (Invitrogen 2.5×10^7/mL) were removed from liquid nitrogen storage, and diluted in plating medium (Dulbecco's modified Eagle medium high glucose (DMEM; Gibco Cat # 11995-065), 10% heat inactivated fetal bovine serum (HIFBS; Sigma Cat # F4135), 1×MEM Nonessential amino acids (Gibco Cat # 15630-080), 25 mM HEPES pH 7.0 (Gibco Cat # 15630-080), 200 nM potassium clavulanate (Sigma Cat # P3494). The cell concentration was adjusted using cell plating medium and 50 microL of this cell suspension ([…]) was added into each well of a black, clear bottom, poly-d-lysine coated 384-well plate (Greiner Bio-One cat# 781946) and incubated at 37 degrees Celsius in a humidified environment containing 5% carbon dioxide. After 4 hours the plating medium was removed and replaced with 40 microL of assay medium (Assay medium is plating medium without potassium clavulanate and HIFBS). Varying concentrations of each compound to be tested was then added in a volume of 10 microL (final DMSO ≦0.5%) and the cells were incubated for 16 hours at 37 degrees Celsius in a humidified environment containing 5% carbon dioxide. Plates were removed from the incubator and allowed to equilibrate to room temperature for approximately 15 minutes. 10 microL of 6×CCF4/AM working dye solution (prepared according to instructions in the Live Blazer FRET-B/G Loading kit, Invitrogen cat #K1027) was added per well and incubated at room temperature for 2 hours in the dark. Fluorescence was measured on an EnVision fluorimetric plate reader, excitation 405 nm, emission 460 nm/535 nm. EC50 determinations were made from agonist-response curves analyzed with a curve fitting program using a 4-parameter logistic dose-response equation.

human GPR119 [2] = target: T1, human GPR119; experiment: GPR119 radioligand binding assay ([3H]-Compound A or B, membranes of HEK 293FT cells expressing hGPR119); design: host or cells: HEK293-CRE beta-lactamase; conditions: calculated from IC50 with Cheng-Prusoff; each line a separate determination
Description: HEK 293FT cells (Invitrogen, Carlsbad, Calif.) were grown in a shake flask in 293Freestyle medium (Invitrogen) supplemented with 50 microg/mL neomycin and 10 mM HEPES (37C, 8% carbon dioxide, shaking). The cells were centrifuged gently (approximately 500×g, 10 minutes) and the pellet resuspended in a mixture of Dulbecco's PBS (minus Mg++/−Ca++) supplemented with 18% fetal bovine serum (Sigma Aldrich) and P1 virus such that the multiplicity of infection (MOI) was 10 and the final cell density was 1.3×10^6/mL (total volume 2.5 liters). The cells were transferred to a 5 liter Wave Bioreactor Wavebag (Wave Technologies, Mass.) and incubated for 4 hours at 27 degrees Celsius (17 rocks/min, 7 degrees platform angle); at the end of the incubation period, an equal volume (2.5 liters) of 293Freestyle medium supplemented with 30 mM sodium butyrate (Sigma Aldrich) was added (final concentration=15 mM), and the cells were grown for 20 hours (37 degrees Celsius, 8% CO2 [0.2 liters/min}, 25 rocks/minute, 7 degrees platform angle). Cells were harvested via centrifugation (3,000×g, 10 minutes), washed once on DPBS (minus Ca++/Mg++), resuspended in 0.25M sucrose, 25 mM HEPES, 0.5 mM EDTA, pH 7.4 and frozen at −80 degrees Celsius.
The frozen cells were thawed on ice and centrifuged at 700×g (1400 rpm) for 10 minutes at 4 degrees Celsius. The cell pellet was resuspended in 20 mL phosphate-buffered saline, and centrifuged at 1400 rpm for 10 minutes. The cell pellet was then resuspended in homogenization buffer (10 mM HEPES (Gibco #15630), pH 7.5, 1 mM EDTA (BioSolutions, #BIO260-15), 1 mM EGTA (Sigma, #E-4378), 0.01 mg/mL benzamidine (Sigma #B 6506), 0.01 mg/mL bacitracin (Sigma #B 0125), 0.005 mg/mL leupeptin (Sigma #L 8511), 0.005 mg/mL aprotinin (Sigma #A 1153)) and incubated on ice for 10 minutes. Cells were then lysed with 15 gentle strokes of a tight-fitting glass Dounce homogenizer. The homogenate was centrifuged at 1000×g (2200 rpm) for 10 minutes at 4 degrees Celsius. The supernatant was transferred into fresh centrifuge tubes on ice. The cell pellet was resuspended in homogenization buffer, and centrifuged again at 1000×g (2200 rpm) for 10 minutes at 4 degrees Celsius after which the supernatant was removed and the pellet resuspended in homogenization buffer. This process was repeated a third time, after which the supernatants were combined, Benzonase (Novagen # 71206) and MgCl2 (Fluka #63020) were added to final concentrations of 1 U/mL and 6 mM, respectively, and incubated on ice for one hour. The solution was then centrifuged at 25,000×g (15000 rpm) for 20 minutes at 4 degrees Celsius, the supernatant was discarded, and the pellet was resuspended in fresh homogenization buffer (minus Benzonase and MgCl2). After repeating the 25,000×g centrifugation step, the final membrane pellet was resuspended in homogenization buffer and frozen at −80 degrees Celsius. The protein concentration was determined using the Pierce BCA protein assay kit (Pierce reagents A #23223 and B #23224).
Test compounds were serially diluted in 100% DMSO (J. T. Baker #922401). 2 microL of each dilution was added to appropriate wells of a 96-well plate (each concentration in triplicate). Unlabeled Compound A (or Compound B), at a final concentration of 10 microM, was used to determine non-specific binding. [^3H]-Compound A (or [^3H]-Compound B) was diluted in binding buffer (50 mM Tris-HCl, pH 7.5, (Sigma #T7443), 10 mM MgCl2 (Fluka 63020), 1 mM EDTA (BioSolutions #BIO260-15), 0.15% bovine serum albumin (Sigma #A7511), 0.01 mg/mL benzamidine (Sigma #B 6506), 0.01 mg/mL bacitracin (Sigma #B 0125), 0.005 mg/mL leupeptin (Sigma #L 8511), 0.005 mg/mL aprotinin (Sigma #A 1153)) to a concentration of 60 nM, and 100 microL added to all wells of 96-well plate (Nalge Nunc # 267245). […]

pEC50 (human GPR119 [1]; hGPR119 HEK293-CRE beta-lactamase cells, 16 h incubation, each line a separate determination, read-out: Human B-lactamase Functional EC50): 7.02 | Emax (human GPR119 [1]; percent of maximal activity relative to standard GPR119 agonist at 10 micromolar, read-out: Intrinsic Activity (Human B-lactamase)): 101% | pKi (human GPR119 [2]): 6.55
Structure (SMILES): COc1c(OC2CCN(C(=O)OC(C)C)CC2)ncnc1N1CCc2cc(S(C)(=O)=O)ccc21 [Example 7, Isopropyl 4-({5-methoxy-6-[5-(methylsulfonyl)-2,3-dihydro-1H-indol-1-yl]pyrimidin-4-yl}oxy)piperidine-1-carboxylate]
